Measurements published in ChEMBL document CHEMBL5352412, “Discovery of 1,2-diphenylethene derivatives as human DNA topoisomerase II catalytic inhibitors and antitumor agents” (Eur J Med Chem, 2022).
Calls of active or inactive are those of the source. The rule behind the calls is not given here.

Legend:
DNA topoisomerase 2-beta = DNA topoisomerase 2-beta (Homo sapiens, UniProt Q02880); assay: Inhibition of human topoisomerase 2-beta assessed as reduction in relaxation of pBR322 DNA measured after 30 mins by agarose gel electrophoresis method
HepG2 [1] = assay: Induction of apoptosis in human HepG2 cells assessed as necrotic cells at 1 uM incubated for 24 hrs by annexin-V FITC and PI staining based flow cytometry analysis (reference value: 0.2%); format: functional
HepG2 [2] = assay: Induction of cell cycle arrest in human HepG2 cells assessed as accumulation of cells at G2/M phase at 0.5 uM incubated for 24 hrs by PI staining based flow cytometry analysis (reference value: 17.5%); format: functional
Homo sapiens [3] = species on record: Homo sapiens; assay: Selectivity index, ratio of IC50 for human CCL-226 cells to IC50 for human A549 cells
[4] = Selectivity index, ratio of IC50 for human HL-7702 cells to IC50 for human PC-3 cells; format: toxicity; conditions: HL-7702 cells versus PC-3 cells, read-out: Ratio IC50
[5] = target: T1, DNA topoisomerase 2-alpha (Homo sapiens, UniProt P11388); assay: Inhibition of human topoisomerase 2-alpha assessed as reduction in relaxation of pBR322 DNA measured after 30 mins by agarose gel electrophoresis method
Homo sapiens [6] = species on record: Homo sapiens; assay: Selectivity index, ratio of IC50 for human CCL-226 cells to IC50 for human HepG2 cells
[7] = Selectivity index, ratio of IC50 for human BEAS-2B cells to IC50 for human HeLa cells; format: toxicity; conditions: BEAS-2B cells versus HeLa cells, read-out: Ratio IC50
[8] = Selectivity index, ratio of IC50 for human HL-7702 cells to IC50 for human MDA-MB-231 cells; format: toxicity; conditions: HL-7702 cells versus MDA-MB-231 cells, read-out: Ratio IC50
HepG2 [9] = assay: Induction of cell cycle arrest in human HepG2 cells assessed as accumulation of cells at G1 phase at 0.5 uM incubated for 24 hrs by PI staining based flow cytometry analysis (reference value: 54%); format: functional
[10] = Selectivity index, ratio of IC50 for human BEAS-2B cells to IC50 for human A549 cells; format: toxicity; conditions: BEAS-2B cells versus A549 cells, read-out: Ratio IC50
[11] = target: T1, DNA topoisomerase 2-alpha; assay: Inhibition of human topoisomerase 2-alpha assessed as DNA intercalation at 100 to 200 uM using pBR322 DNA as substrate measured after 30 mins by agarose gel electrophoresis analysis; conditions: dose 100-200 µM
HepG2 [12] = assay: Induction of apoptosis in human HepG2 cells assessed as late apoptotic cells at 1 uM incubated for 24 hrs by annexin-V FITC and PI staining based flow cytometry analysis (reference value: 2.3%); format: functional
HepG2 [13] = assay: Induction of cell cycle arrest in human HepG2 cells assessed as accumulation of cells at G1 phase at 1 uM incubated for 24 hrs by PI staining based flow cytometry analysis (reference value: 54%); format: functional
HepG2 [14] = assay: Induction of apoptosis in human HepG2 cells assessed as viable cells at 1 uM incubated for 24 hrs by annexin-V FITC and PI staining based flow cytometry analysis (reference value: 93.8%); format: functional; conditions: read-out: Activity
HepG2 [15] = assay: Induction of apoptosis in human HepG2 cells assessed as necrotic cells at 0.5 uM incubated for 24 hrs by annexin-V FITC and PI staining based flow cytometry analysis (reference value: 0.2%); format: functional
HepG2 [16] = assay: Antiproliferative activity against human HepG2 cells incubated for 72 hrs by CCK8 assay; format: functional, cell-based; conditions: Homo sapiens, HepG2, 72 h
HepG2 [17] = assay: Induction of apoptosis in human HepG2 cells assessed as viable cells at 0.5 uM incubated for 24 hrs by annexin-V FITC and PI staining based flow cytometry analysis (reference value: 93.8%); format: functional; conditions: read-out: Activity
Homo sapiens [18] = species on record: Homo sapiens; assay: Selectivity index, ratio of IC50 for human CCL-226 cells to IC50 for human HCT-116 cells
HepG2 [19] = assay: Induction of cell cycle arrest in human HepG2 cells assessed as accumulation of cells at G2/M phase at 1 uM incubated for 24 hrs by PI staining based flow cytometry analysis (reference value: 17.5%); format: functional
HepG2 [20] = assay: Induction of cell cycle arrest in human HepG2 cells assessed as accumulation of cells at S phase at 0.5 uM incubated for 24 hrs by PI staining based flow cytometry analysis (reference value: 28.2%); format: functional
[21] = target: T1, DNA topoisomerase 2-alpha; assay: Inhibition of human topoisomerase 2-alpha using pBR322 DNA as substrate incubated for 30 mins in presence of 0.5 to 5 mM ATP (reference value: 3.4 microM)
[22] = Selectivity index, ratio of IC50 for human BEAS-2B cells to IC50 for human HepG2 cells; format: toxicity; conditions: BEAS-2B cells versus HepG2 cells, read-out: Ratio IC50
HepG2 [23] = assay: Upregulation of gamma-H2AX level in human HepG2 cells incubated for 4 hrs by Western blotting analysis; format: functional, cell-based
[24] = target: T1, DNA topoisomerase 2-alpha; assay: Inhibition of human topoisomerase 2-alpha using pBR322 DNA as substrate incubated for 1 hr in presence of ATP by malachite green phosphate method
HCT-116 = assay: Antiproliferative activity against human HCT-116 cells incubated for 72 hrs by CCK8 assay; format: functional, cell-based; conditions: HCT-116, 72 h
HepG2 [25] = assay: Induction of cell cycle arrest in human HepG2 cells assessed as accumulation of cells at S phase at 1 uM incubated for 24 hrs by PI staining based flow cytometry analysis (reference value: 28.2%); format: functional
[26] = Selectivity index, ratio of IC50 for human HL-7702 cells to IC50 for human HepG2 cells; format: toxicity; conditions: HL-7702 cells versus HepG2 cells, read-out: Ratio IC50
[27] = target: T1, DNA topoisomerase 2-alpha; assay: Inhibition of human topoisomerase 2-alpha assessed as reduction in VP-16 induced enzyme-DNA cleavage complex formation by measuring linear DNA production; conditions: dose 10-100 µM
A549 = assay: Antiproliferative activity against human A549 cells incubated for 72 hrs by CCK8 assay; format: functional, cell-based; conditions: A549, 72 h
[28] = Selectivity index, ratio of IC50 for human HL-7702 cells to IC50 for human HCT-116 cells; format: toxicity; conditions: HL-7702 cells versus HCT-116 cells, read-out: Ratio IC50
[29] = Selectivity index, ratio of IC50 for human BEAS-2B cells to IC50 for human MDA-MB-231 cells; format: toxicity; conditions: BEAS-2B cells versus MDA-MB-231 cells, read-out: Ratio IC50
HeLa = assay: Antiproliferative activity against human HeLa cells incubated for 72 hrs by CCK8 assay; format: functional, cell-based
Homo sapiens [30] = species on record: Homo sapiens; assay: Selectivity index, ratio of IC50 for human CCL-226 cells to IC50 for human PC-3 cells
HepG2 [31] = assay: Induction of apoptosis in human HepG2 cells assessed as early apoptotic cells at 0.5 uM incubated for 24 hrs by annexin-V FITC and PI staining based flow cytometry analysis (reference value: 3.7%); format: functional
HepG2 [32] = assay: Induction of apoptosis in human HepG2 cells assessed as early apoptotic cells at 1 uM incubated for 24 hrs by annexin-V FITC and PI staining based flow cytometry analysis (reference value: 3.7%); format: functional
[33] = Antiproliferative activity against human HL7702 cells incubated for 72 hrs by CCK8 assay; format: toxicity, cell-based; conditions: HL7702 (L02) cells

T1 sequence (P11388 whole entry): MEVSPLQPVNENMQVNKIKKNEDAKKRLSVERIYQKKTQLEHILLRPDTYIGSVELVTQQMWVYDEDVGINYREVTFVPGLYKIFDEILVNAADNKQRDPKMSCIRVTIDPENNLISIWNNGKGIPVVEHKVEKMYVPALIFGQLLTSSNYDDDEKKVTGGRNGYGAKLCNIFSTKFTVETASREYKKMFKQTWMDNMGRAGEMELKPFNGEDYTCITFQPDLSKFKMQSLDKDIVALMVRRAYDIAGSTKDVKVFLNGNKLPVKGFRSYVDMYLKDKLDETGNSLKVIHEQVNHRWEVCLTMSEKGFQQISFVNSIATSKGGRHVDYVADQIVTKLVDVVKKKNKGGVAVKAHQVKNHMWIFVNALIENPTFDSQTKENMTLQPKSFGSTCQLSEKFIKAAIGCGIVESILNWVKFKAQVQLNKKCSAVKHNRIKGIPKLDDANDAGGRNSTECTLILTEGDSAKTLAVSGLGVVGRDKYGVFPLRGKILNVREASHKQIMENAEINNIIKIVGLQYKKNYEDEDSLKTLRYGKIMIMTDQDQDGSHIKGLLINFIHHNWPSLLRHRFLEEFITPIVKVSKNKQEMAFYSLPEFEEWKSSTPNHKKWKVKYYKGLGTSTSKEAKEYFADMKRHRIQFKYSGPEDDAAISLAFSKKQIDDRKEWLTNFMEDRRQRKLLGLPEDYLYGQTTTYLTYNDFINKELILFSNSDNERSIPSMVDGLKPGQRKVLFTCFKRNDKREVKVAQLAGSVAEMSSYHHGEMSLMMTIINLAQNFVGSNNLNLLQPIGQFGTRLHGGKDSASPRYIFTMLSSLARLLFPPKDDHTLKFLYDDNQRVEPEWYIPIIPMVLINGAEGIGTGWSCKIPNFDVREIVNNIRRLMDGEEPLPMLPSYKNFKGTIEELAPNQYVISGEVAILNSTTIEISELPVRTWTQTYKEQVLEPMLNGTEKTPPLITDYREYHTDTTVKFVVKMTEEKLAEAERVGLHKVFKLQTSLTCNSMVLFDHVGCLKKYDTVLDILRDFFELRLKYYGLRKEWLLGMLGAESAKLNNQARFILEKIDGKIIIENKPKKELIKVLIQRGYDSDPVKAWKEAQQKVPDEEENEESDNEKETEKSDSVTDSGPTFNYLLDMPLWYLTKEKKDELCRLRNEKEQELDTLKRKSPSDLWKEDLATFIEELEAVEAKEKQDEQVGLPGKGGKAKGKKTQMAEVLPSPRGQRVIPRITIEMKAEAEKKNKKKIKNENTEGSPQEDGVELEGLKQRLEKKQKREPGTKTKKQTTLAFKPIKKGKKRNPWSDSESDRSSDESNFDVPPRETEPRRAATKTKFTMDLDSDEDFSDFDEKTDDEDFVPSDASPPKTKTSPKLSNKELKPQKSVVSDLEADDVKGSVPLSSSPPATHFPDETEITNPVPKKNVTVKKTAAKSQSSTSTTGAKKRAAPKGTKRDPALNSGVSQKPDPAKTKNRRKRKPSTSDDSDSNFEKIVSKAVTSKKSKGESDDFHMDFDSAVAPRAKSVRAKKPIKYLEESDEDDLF
DNA topoisomerase 2-beta, sequence (Q02880 whole entry): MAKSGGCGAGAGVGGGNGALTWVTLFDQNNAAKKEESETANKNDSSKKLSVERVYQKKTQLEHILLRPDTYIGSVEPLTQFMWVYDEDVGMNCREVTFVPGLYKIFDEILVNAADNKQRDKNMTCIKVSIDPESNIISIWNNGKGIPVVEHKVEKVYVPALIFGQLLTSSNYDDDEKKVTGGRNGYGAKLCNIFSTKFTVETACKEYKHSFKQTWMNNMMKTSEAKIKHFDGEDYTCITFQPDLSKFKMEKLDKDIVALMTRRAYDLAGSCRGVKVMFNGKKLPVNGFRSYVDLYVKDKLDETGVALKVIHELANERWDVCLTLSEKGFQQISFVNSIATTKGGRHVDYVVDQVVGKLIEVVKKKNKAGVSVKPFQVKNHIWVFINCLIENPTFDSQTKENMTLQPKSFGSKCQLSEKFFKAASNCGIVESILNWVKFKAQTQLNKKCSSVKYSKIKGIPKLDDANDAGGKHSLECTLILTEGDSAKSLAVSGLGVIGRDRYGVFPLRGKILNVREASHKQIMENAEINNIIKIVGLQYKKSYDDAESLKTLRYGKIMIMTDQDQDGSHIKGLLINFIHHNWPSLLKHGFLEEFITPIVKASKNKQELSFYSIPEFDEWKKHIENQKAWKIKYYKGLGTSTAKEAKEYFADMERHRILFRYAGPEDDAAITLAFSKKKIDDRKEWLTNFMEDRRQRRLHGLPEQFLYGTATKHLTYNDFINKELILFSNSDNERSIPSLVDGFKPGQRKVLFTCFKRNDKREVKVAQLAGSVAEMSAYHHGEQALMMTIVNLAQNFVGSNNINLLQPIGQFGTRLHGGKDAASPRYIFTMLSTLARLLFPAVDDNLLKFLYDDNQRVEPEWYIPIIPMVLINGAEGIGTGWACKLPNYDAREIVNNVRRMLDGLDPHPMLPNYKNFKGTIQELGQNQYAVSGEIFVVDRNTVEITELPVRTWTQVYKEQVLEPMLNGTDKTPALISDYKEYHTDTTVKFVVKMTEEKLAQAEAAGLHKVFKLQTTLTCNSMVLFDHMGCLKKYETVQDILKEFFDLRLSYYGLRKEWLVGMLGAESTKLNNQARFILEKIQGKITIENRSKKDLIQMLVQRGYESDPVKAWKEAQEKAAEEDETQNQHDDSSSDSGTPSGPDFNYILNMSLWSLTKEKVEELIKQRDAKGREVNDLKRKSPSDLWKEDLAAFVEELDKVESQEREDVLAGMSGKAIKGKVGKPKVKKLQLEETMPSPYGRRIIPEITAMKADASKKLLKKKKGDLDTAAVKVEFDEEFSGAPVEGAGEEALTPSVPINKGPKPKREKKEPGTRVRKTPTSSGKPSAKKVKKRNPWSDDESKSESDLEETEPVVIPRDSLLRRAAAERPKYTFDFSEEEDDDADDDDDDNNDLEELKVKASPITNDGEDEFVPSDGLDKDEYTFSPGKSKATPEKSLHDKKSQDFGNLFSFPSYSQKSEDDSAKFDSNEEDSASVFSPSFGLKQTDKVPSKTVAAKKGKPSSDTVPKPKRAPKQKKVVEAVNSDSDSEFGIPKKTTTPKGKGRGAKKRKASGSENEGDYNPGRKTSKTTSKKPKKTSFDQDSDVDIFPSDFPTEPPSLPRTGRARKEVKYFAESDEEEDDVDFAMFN

O=C(CCc1ccccc1)Nc1ccc(-c2ccc3cc(O)ccc3c2)cc1
IC50 (DNA topoisomerase 2-beta): 10100 nM
Activity (HepG2 [1]): 0.3%
Activity (HepG2 [2]): 48.9%
Ratio IC50 (Homo sapiens [3]): > 52.1
selectivity ratio [4]: > 52.1
IC50 [5]: 3800 nM
Ratio IC50 (Homo sapiens [6]): > 52.1
selectivity ratio [7]: > 52.1
selectivity ratio [8]: > 52.1
Activity (HepG2 [9]): 19%
selectivity ratio [10]: > 52.1
inhibition [11]: inactive
Activity (HepG2 [12]): 46.1%
Activity (HepG2 [13]): 3.3%
viability at 1 µM (HepG2 [14]): 29.2%
Activity (HepG2 [15]): 0.1%
IC50 (HepG2 [16]): 300 nM
viability at 0.5 µM (HepG2 [17]): 72.5%
Ratio IC50 (Homo sapiens [18]): > 52.1
Activity (HepG2 [19]): 84.1%
Activity (HepG2 [20]): 32%
IC50 [21]: 13400 nM
selectivity ratio [22]: > 52.1
Activity (HepG2 [23]): inactive
inhibition [24]: Dose-Dependent Effect
IC50 (HCT-116): 200 nM
Activity (HepG2 [25]): 11.2%
selectivity ratio [26]: > 52.1
inhibition [27]: Dose-Dependent Effect
IC50 (A549): 300 nM
selectivity ratio [28]: > 52.1
selectivity ratio [29]: > 52.1
IC50 (HeLa): 100 nM
Ratio IC50 (Homo sapiens [30]): > 52.1
Activity (HepG2 [31]): 14%
Activity (HepG2 [32]): 24.5%
IC50 at 72 h [33]: 16700 nM
